The values below come from US20240118263A1, “TARGET FOR SCREENING ANTI-TUMOR DRUG, USE THEREOF AND SCREENING METHOD THEREFOR” (SHENYANG FUYANG PHARMACEUTICAL TECHNOLOGY CO., LTD., priority 2019, published 2024).

SMILES strings stand for the structures. Read-outs that look alike come from different tables or passages of the source.

Series [1] deals with mouse melanoma B16-BL6 cells. Briefly: cells. It counts as cell-based. An excerpt:
MTT reduction method is used.

Another series concerns the target SelH (Homo sapiens, UniProt Q8IZQ5, U44C). Briefly: Surface plasmon resonance (SPR) detection of affinity between compounds and SelH. The format is binding. The note with it: for binding activity to the SelH (in words): ranking within the table's compounds. An excerpt: A Cys-deficient Escherichia coli expression system was adopted, which is an effective method to prepare selenoprotein found in recent years. Itsbasic principle is as follows: the characteristic that Cys transfer RNA (tRNACys) can bind to Sec was utilized, and a culture medium which is lack of cysteine (Cys) and rich in Selenium cysteine (Sec) was used for culturing a strain, so that Sec was successfully incorporated into newly expressed protein. According to existing literature reports, a human SelH gene sequence was obtained. Selenocysteine of the SelH is in the middle of the sequence and was terminated here during prokaryotic expression, so that the selenocysteine was mutated from a triple codon TGA of the selenocysteine into TGC, which was synthesized by the Sangon Bioengineering (Shanghai) Co., Ltd. In addition, the adopted SPP system was a single protein production system, and a principle of the SPP system was to induce MazF enzyme (mRNA interfering enzyme for cutting RNA on an ACA nucleotide sequence) to cause growth arrest of thalli. The enzyme can specifically recognize and cut the ACA sequence and prevent synthesis of other background proteins in bacteria. Therefore, when mRNA of the desired target protein was encoded, if the mRNA can be designed into a form lacking an ACA base triplet according to an amino acid encoding rule and was induced at 15° C. by using a pCold vector in cells expressing MazF, the mRNA was not enzymatically hydrolyzed, only a protein derived from the mRNA was generated, and there was little synthesis of other cell proteins.
A pColdI-selH plasmid was transformed into BL21 (DE3) Cys-deficient Escherichia coli, so as to obtain a defective expression bacterium pColdI-selH. Sec was added during culture, making it become selenium-containing protein. The target protein was purified by using Ni^2+ column chelating chromatography, and impure protein was eluted by using an imidazole eluent of different concentrations to finally obtain the target protein. Soluble SelH protein was finally obtained, and SDS-PAGE (sodium dodecyl sulfate polyacrylamide gel electrophoresis) analysis was carried out.
A surface plasmon resonance (SPR) method was adopted to detect the interaction condition of a small molecule and a protein, so that the screening of drugs targeting SelH was carried out.
Purified SelH was diluted into a 50 μg/mL protein solution by using 10 mM sodium acetate with a pH value of 5.5, the purified SelH was fixed onto a CM5 chip by an amino coupling method by using Biacore 8K (GE Healthcard, Sweden), and an RU value was recorded.
An isopentenyl or isovaleryl substituted coumarin compound, or a triterpenoid compound with an isopentenyl-like structure (the compound specifically includes aurapten, protopanaxadiol, iso-imperatorin, decursin, osthol, notoginsenoside R1 and shionon) was dissolved in 100% DMSO to be prepared into solutions containing 5% DMSO of different concentrations (0, 31.25, 62.5, 125, 250 and 500 μM) by using a 1.05×PBS-P^+ buffer solution (GE Healthcare, obtained by diluting 10×PBS-P^+).
A single-cycle kinetics method was adopted, the 1.05×PBS-P^+ buffer solution containing 5% DMSO was used as a Running Buffer, different compounds of different concentrations flowed through the SelH fixed onto the chip, wherein the binding time was 120 s, and the change condition of the RU value was recorded. An equilibrium dissociation constant (KD) was calculated by using software in Biacore 8K so as to evaluate the binding affinity between the protein and the compounds. The SPR detection result of the affinity between compounds and SelH in Embodiment 2 of the present disclosure is as shown in FIG. 1A-G, and the result statistics is as shown in Table 1.
(1) Screening of small molecule drugs by taking SelH as a target A surface plasmon resonance (SPR) method was adopted to detect the interaction condition of a small molecule and a protein, so that the screening of drugs targeting SelH was carried out. […]

The subject of series [2] is human non-small cell lung cancer cells A549. Nature of the series: MTT in-vitro anti-tumor activity test, A549.
Method: (§1) Experimental Materials Human non-small cell lung cancer cells A549, mouse breast cancer cells 4T-1 and mouse melanoma B16-BL6 were purchased from American Type Current Collection (ATCC, Rockville, MD, USA). An RPMI-1640 culture solution containing 10% of fetal calf serum and 2% of glutamine was inoculated with the A549, 4T-1 and B16-BL6 cells, and the cells were incubated at 37° C. in a 5% CO2 incubator.
(§2) The compounds were dissolved in DMSO under a sterile condition, and the obtained solutions were diluted to required concentrations by using an RPMI 1640 culture solution, wherein the final concentration of the DMSO was less than 0.5%.
(§3) A549, 4T-1 and B16-BL6 were used as adherent cells, adherent tumor cells in a logarithmic phase were selected, digested with pancreatin, and then prepared into a cell suspension of 5×10^4/ml with a culture medium containing 10% of calf serum, a 96-well culture plate was inoculated with the cell suspension, wherein each well contained 100 μl of the cell suspension, and incubation was carried out for 24 h at 37° C. and 5% CO2. Replacing was carried out with a new culture solution containing the samples to be detected of different concentrations in the experimental groups, replacing was carried out with a culture solution containing a same volume of solvent in the control group, three parallel wells were set in each group, and incubation was carried out for 48 hours at 37° C. and 5% CO2. The supernate was discarded, careful washing was carried out with PBS twice, 100 μl of a freshly prepared culture medium containing 0.5 mg/ml of MTT was added into each well, and incubation was continued to be carried out at 37° C. for 4 h. The supernatant was carefully discarded, 150 μl of DMSO was added, uniform mixing was carried out for 10 min by using a micro oscillator, and the optical density value was measured at 492 nm by using a microplate reader.
(§4) Tumor cell growth inhibition ratio (%)=[A492 (negative control)−A492 (dosing group)]/A492 (negative control)×100%
(§5) The median inhibitory concentration (IC50) of the sample is calculated.
Series [3] relates to mouse breast cancer 4T1 cells. Briefly: MTT in-vitro anti-tumor activity test, 4T1. The note with it: read-out: IC50 cytotoxic effect on 4T1.
Method: as §1, §2, §3, §4, §5
Series [4] has as its system mouse breast cancer 4T1 cells.
Method: as §1, §2, §3, §4, §5
For series [5], the system named is human non-small cell lung cancer cells A549.
Method: as §1, §2, §3, §4, §5
The mark [6] stands for this setting: read-out: IC50 cytotoxic effect on B16-BL6, MTT, 48 hours, Table 1.
Setting [7] is: SPR Biacore 8K, single-cycle kinetics, Table 1, read-out: Dissociation constant KD of compounds and SelH.
Where [8] appears, read: read-out: IC50 cytotoxic effect on A549, MTT, 48 hours, Table 1.
[9] abbreviates: Mus musculus, B16-BL6, 48 h, read-out: IC50 cytotoxic effect on B16-BL6.
[10] abbreviates: SPR Biacore 8K, single-cycle kinetics, Table 3, read-out: KD binding of macrolides and cyclic peptides to SelH.
Setting [11] is: Homo sapiens, A549, 48 h, read-out: A549 IC50 cytotoxicity.
Setting [12] is: Mus musculus, B16-BL6, read-out: IC50 cytotoxic effect on B16-BL6, MTT, 48 hours, Table 1.
Where [13] appears, read: Homo sapiens, A549, 48 h, read-out: IC50 cytotoxic effect on A549.
Where [14] appears, read: SPR Biacore 8K, single-cycle kinetics, Table 2, read-out: Dissociation constant KD of compounds and SelH.

One may read the IC50 as the point on the concentration scale where inhibition reaches its midpoint. For orientation: Kd means the constant that tells how readily two partners part at equilibrium. For `CC(C)=CCCC(C)(O)[C@H]1CC[C@]2(C)[C@@H]1[C@H](O)C[C@@H]1[C@@]3(C)CC[C@H](O)C(C)(C)[C@@H]3CC[C@]12C` (stereo in doubt) [Protopanaxadiol, protopanoxadiol], the IC50 in series [1] (setting [6]) is 58 µM; in series [2] (setting [8]), 54.4 µM; in series [3] (MTT, 48 hours), 30.9 µM. At SelH (setting [7]), the Kd came out at 6.71e-05 µM. Further, the “binding activity to the SelH (in words)” value on SelH is reported as “strongest”.
For `CC(=O)O[C@H](CC=C(C)C)C1=CC(=O)c2c(O)ccc(O)c2C1=O` [Acetyl Shikonin, acetyl shikonin], the IC50 in series [1] (setting [9]) is 4.44 µM. Further, at SelH, the Kd stood at 0.000464 µM and the “binding activity to the SelH (in words)” value is reported as “strongest”.
Take `CC(C)=CCC/C(C)=C/COc1ccc2ccc(=O)oc2c1` [Aurapten, aurapten]: the values for the IC50 in series [4], in series [1] and in series [5] were 37.7 µM, 61.9 µM and 51.9 µM, respectively. For the same compound, the Kd at SelH (setting [7]) is 1.53e-05 µM.
In the case of `CC[C@H]1OC(=O)[C@H](C)[C@@H](O[C@H]2C[C@@](C)(OC)[C@@H](O)[C@H](C)O2)[C@H](C)[C@@H](O[C@@H]2O[C@H](C)C[C@H](N(C)C)[C@H]2O)[C@](C)(O)C[C@@H](C)CN(C)[C@H](C)[C@@H](O)[C@]1(C)O` [Azithromycin, azithromycin], the dissociation constant (Kd) on SelH (setting [10]) was 537 µM. Moreover, on SelH, the “binding activity to the SelH (in words)” value was “weakest”. Also, the IC50 in series [2] (setting [11]) is 72.4 µg/mL.
As to `CO[C@@H]1[C@@H](O[C@@H]2O[C@H](C)[C@@H](O[C@H]3C[C@@](C)(O)[C@@H](OC(=O)CC(C)C)[C@H](C)O3)[C@H](N(C)C)[C@H]2O)[C@@H](CC=O)C[C@@H](C)C(=O)/C=C/[C@@H]2O[C@H]2C[C@@H](C)OC(=O)C[C@H]1OC(C)=O` [Carbomycin, carbomycin], the “A549 IC50 cytotoxicity” value in series [5] is 11.79 µg/mL. Also, the Kd on SelH (setting [10]) worked out at 4.4 µM.
As for `CC(C)=CC(=O)O[C@H]1Cc2cc3ccc(=O)oc3cc2OC1(C)C` [Decursin, decursin], the IC50 was 67.8 µM in series [1] (setting [12]); 60 µM in series [2] (setting [13]); 38.2 µM in series [3] (Mus musculus, 4T1, 48 h). Moreover, the Kd on SelH (setting [7]) was found to be 0.00205 µM.
`CC[C@H]1OC(=O)[C@H](C)[C@@H](O[C@H]2C[C@@](C)(OC)[C@@H](O)[C@H](C)O2)[C@H](C)[C@@H](O[C@@H]2O[C@H](C)C[C@H](N(C)C)[C@H]2O)[C@](C)(O)C[C@@H](C)C(=O)[C@H](C)[C@@H](O)[C@]1(C)O` [Erythromycin, erythromycin]: the Kd on SelH (setting [10]) was 10.4 µM. Also, the IC50 in series [2] (setting [11]) is 230 µg/mL.
For `CC(C)=CCOc1c2ccoc2cc2oc(=O)ccc12` [Iso-imperatorin, iso-imperatorin], the IC50 in series [1] (setting [12]) came out at 75.2 µM; in series [2] (setting [13]) it was 72.5 µM; in series [3] (Mus musculus, 4T1, 48 h), 48.9 µM. Also, the Kd on SelH (setting [7]) amounted to 7.53e-05 µM. For the same compound, on SelH, the “binding activity to the SelH (in words)” value is “strongest”.
Take `COc1cc(O)c(CC=C(C)C)c2c1C(=O)CC(c1ccc(O)cc1)O2` (stereo not drawn) [Isoxanthohunol, isoxanthohunol]: in series [1], the IC50 amounted to 29 µM. Also, on SelH (setting [14]), the Kd is 2.43 µM.
Take `CC(C)=CCc1c(-c2ccc(O)cc2O)oc2c3c(cc(O)c2c1=O)OC(C)(C)C=C3` [Morusin, morusin]: in series [1] (Mus musculus, B16-BL6, read-out: IC50 cytotoxic effect on B16-BL6, MTT, 48 hours, Table 2), the IC50 came to 37.9 µM. The Kd on SelH (setting [14]) is 4030 µM. The “binding activity to the SelH (in words)” value at SelH is “weakest”.
As for `CC(C)=CCC[C@](C)(O[C@@H]1O[C@H](CO)[C@@H](O)[C@H](O)[C@H]1O)[C@H]1CC[C@]2(C)[C@@H]1[C@H](O)C[C@@H]1[C@@]3(C)CC[C@H](O)C(C)(C)[C@@H]3[C@@H](O[C@@H]3O[C@H](CO)[C@@H](O)[C@H](O)[C@H]3O[C@@H]3OC[C@@H](O)[C@H](O)[C@H]3O)C[C@]12C` [Notoginsenoside R1, notoginsenoside R1], the IC50 stood at 100 µM in series [4], 111 µM in series [1] (setting [6]) and 126 µM in series [5]. Moreover, at SelH (setting [7]), the Kd is 563 µM. For the same compound, on SelH, the “binding activity to the SelH (in words)” value is on record as “weakest”.
With `COc1ccc2ccc(=O)oc2c1CC=C(C)C` [Osthol, osthol], the IC50 is 100 µM in series [1] (setting [6]); 81.2 µM in series [2] (setting [8]); 67.4 µM in series [3] (MTT, 48 hours). The Kd on SelH (setting [7]) worked out at 0.0851 µM.
For `CC(C)=CC[C@@H](O)C1=CC(=O)c2c(O)ccc(O)c2C1=O` [Shikonin, shikonin], the IC50 in series [1] (setting [9]) was determined as 13 µM. This compound also gave a Kd at SelH of 5.42 µM.
For the compound `CC(C)=CCC[C@]1(C)CC[C@]2(C)[C@H]3CC[C@@]4(C)[C@@H](CCC(=O)[C@@H]4C)[C@]3(C)CC[C@@]2(C)C1` [Shionon, shionon], the IC50 is 93.9 µM in series [1] (setting [6]); 92.7 µM in series [2] (setting [8]); 82.4 µM in series [3] (MTT, 48 hours). Moreover, the Kd on SelH (setting [7]) worked out at 0.00676 µM.
On to `CO[C@@H]1[C@@H](O[C@@H]2O[C@H](C)[C@@H](O[C@H]3C[C@@](C)(O)[C@@H](O)[C@H](C)O3)[C@H](N(C)C)[C@H]2O)[C@@H](CC=O)C[C@@H](C)[C@@H](O[C@H]2CC[C@H](N(C)C)[C@@H](C)O2)/C=C/C=C/C[C@@H](C)OC(=O)C[C@H]1O` [Spiramycin, spiramycin], for which the Kd on SelH (setting [10]) amounted to 4.38 µM. The “A549 IC50 cytotoxicity” value in series [2] (MTT, 48 hours, Table 3) worked out at 18.33 µg/mL.
Regarding `C=C(NC(=O)C(=C)NC(=O)c1csc(C2=N[C@@H]3c4csc(n4)[C@H]4NC(=O)c5csc(n5)[C@H]([C@](C)(O)[C@@H](C)O)NC(=O)[C@H]5CSC(=N5)/C(=C/C)NC(=O)[C@H]([C@@H](C)O)NC(=O)c5csc(n5)[C@]3(CC2)NC(=O)[C@H](C)NC(=O)C(=C)NC(=O)[C@H](C)NC(=O)[C@H]([C@@H](C)CC)N[C@@H]2C=Cc3c([C@H](C)O)cc(nc3[C@H]2O)C(=O)O[C@@H]4C)n1)C(N)=O` [Thiostrepton, thiostrepton], the Kd at SelH (setting [10]) came to 19.9 µM. The IC50 in series [2] (setting [11]) is 9.66 µg/mL.
As to `COc1c(O)cc2oc3cc(O)c(CC=C(C)C)c(O)c3c(=O)c2c1CC=C(C)C` [α-mangostin], the IC50 in series [1] (read-out: IC50 cytotoxic effect on B16-BL6, MTT, 48 hours, Table 2) was 40.2 µM. In addition, the Kd on SelH (setting [14]) was determined as 398 µM.
